# From patent EP3381898A1, “SYMMETRICAL TRIS-ARYL-AMIDE DERIVATIVES AND THEIR USE AS ANTI-HEPARANASE” (priority 2017, dated 2018)
# Where a name gives a salt, the structure may show the parent alone. Read-outs that look alike come from different tables or passages of the source.
# Experiments:
# heparanase = target: T1, heparanase (Homo sapiens, UniProt Q9Y251); assay: AGA*IA assay: heparanase-catalyzed fondaparinux cleavage, colorimetric (WST-1); assay type: biochemical
# T1 sequence (Q9Y251 158-543 limits assumed): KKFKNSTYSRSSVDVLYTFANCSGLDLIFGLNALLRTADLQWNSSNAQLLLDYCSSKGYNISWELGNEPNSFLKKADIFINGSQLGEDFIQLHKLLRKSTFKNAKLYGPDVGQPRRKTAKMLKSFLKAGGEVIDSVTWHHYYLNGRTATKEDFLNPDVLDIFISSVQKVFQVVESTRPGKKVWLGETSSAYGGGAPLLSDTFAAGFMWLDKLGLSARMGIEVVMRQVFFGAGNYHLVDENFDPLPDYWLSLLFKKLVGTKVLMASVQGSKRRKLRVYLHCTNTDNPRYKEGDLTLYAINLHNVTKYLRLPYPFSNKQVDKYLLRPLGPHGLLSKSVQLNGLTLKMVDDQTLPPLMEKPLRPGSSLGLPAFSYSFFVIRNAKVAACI
# T1 sequence (Q9Y251 36-109 limits assumed): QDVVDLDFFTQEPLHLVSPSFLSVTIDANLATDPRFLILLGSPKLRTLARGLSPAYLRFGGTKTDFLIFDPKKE
# Description: All compounds were tested in a simple, accurate and robust microplate assay based on the cleavage of the synthetic heparin fragment, the pentasaccharide Fondaparinux (AGA*IA). This assay was originally developed by Hammond and coworkers (Hammond E, Li CP, Ferro V. Development of a colorimetric assay for heparanase activity suitable for kinetic analysis and inhibitor screening. Anal. Biochem. 396(1), 112-116 (2010)), where Fondaparinux corresponds to the methyl glycoside of the antithrombin III (ATIII)-activating pentasaccharide sequence of heparin. Fondaparinux is cleaved by heparanase to generate a reducing disaccharide, which can be quantitatively measured via a colorimetric or a fluorescence assay, the last by the fluorescent sensor polymer-H [Schiemann S, Lühn S, Alban S. Development of both colorimetric and fluorescence heparinase activity assays using fondaparinux as substrate. Anal. Biochem. 427(1), 82-89 (2012)].
# The assay measures the appearance of the disaccharide product of heparanase-catalyzed fondaparinux cleavage colorimetrically using the tetrazolium salt WST-1. Assay was essentially performed as described with minor modifications. Briefly, NUNC ELISA 96-well plates were pre-treated with a solution of 4% BSA (bovin serum albumin) in phosphate-buffered saline containing 0.05% Tween 20 (PBST), for 2 h at 37°C, then washed three times with PBST, dried by tapping on paper towel and stored at -20°C. Before use, once again, the plates were washed with PBST.
# Assay was carried out with 100 µl/well of assay solution containing 40 mM sodium acetate buffer (pH 5.0), 100 µM fondaparinux, 2.5 nM heparanase and serial dilutions of test compounds (tested in triplicate). Plates were sealed with adhesive tape and incubated, in the dark, for 3 h at 37°C, followed by development with 1.69 mM of the tetrazolium salt WST-1 solution in 0.1 M NaOH, for 1 h at 60°C. Then, the absorbance at 560 nm was measured through a microplate reader (Victor 3, Perkin Elmer).
# Finally, the measurements were corrected by subtracting both the reagent background and the inner absorbance value of test compound.
# [1] = system: HT1080 (human fibrosarcoma); assay: SRB Cell Cytotoxicity Assay (cell proliferation, 72h); assay type: cell-based; details: read-out: Concentration (µM) of test compounds at which the cell growth is inhibited by 50 %. HT1080
# Description: (§1) SRB Cell Cytotoxicity Assay is an assay based upon the quantitative staining of cellular proteins by sulforhodamine B (SRB). This assay can be used for high-throughput drug screening ([…], Nature Protocol. 2006, 1, 112). Sulforhodamine B is an anionic aminoxanthene dye that forms an electrostatic complex with the basic amino acid residues of proteins under moderately acid conditions, which provides a sensitive linear response. […] Inhibition of cell proliferation was then measured by the classical colorimetric SRB Cell Cytotoxicity assay. Absorbance was measured by spectrophotometer at a wavelength of 510 nm and cell proliferation was determined as percent with respect to control cells (cells treated with the vehicle alone). EC50 values were then determined by GraphPad Prism.
# [2] = system: U2OS (human osteosarcoma); assay: as above; assay type: cell-based; details: read-out: Concentration (µM) of test compounds at which the cell growth is inhibited by 50 %. U2OS
# Description: as §1
# [3] = system: U87MG (human glioblastoma astrocytoma); assay: as above; assay type: cell-based; details: U-87 MG, read-out: Concentration (µM) of test compounds at which the cell growth is inhibited by 50 %. U87MG
# Description: as §1
# [4] = system: HT1080 (human fibrosarcoma); assay: Matrigel cell invasion assay; assay type: cell-based; details: for inhibition at 2.5 µM: HT-1080, read-out: Invasion Assay Inhibition HT1080
# Description: (§2) Heparanase inhibitors were then evaluated for their activity on the invasive potential of HT1080 (human fibrosarcoma), U87MG (human glioblastoma astrocytoma) and U2OS (human osteosarcoma) human cell lines, using the Matrigel cell invasion assay which allows to assess the cell invasion ability of malignant and normal cells.
# (§3) Invasion assay was performed using BioCoat cell culture inserts (BioCoat 8.0µm PET Membrane 24 Well Permeable Supports, Corning). Filters were coated with 100 µl of 300 µg/ml Matrigel dissolved in coating buffer (0.01 M Tris pH 8.0, 0.7% NaCl) (Becton-Dickinson Sciences). DMEM (Dulbecco's Modified Eagle's Medium) containing 5% FBS was added to the lower chambers. Cells were pre-treated with heparanase inhibitors for 24 h, detached and added to the upper chambers in media containing the inhibitors. Cells were allowed to invade for 24 h at 37°C in a CO2 incubator and then unmigrated cells were removed from the upper chamber with a cotton swab. The invading cells were fixed, stained with 0.1% crystal violet for 10 min at room temperature, photographed and counted under inverted microscope.
# (§4) Test compounds were analyzed at fixed concentration (2.5 µM) for several fields, in duplicates. Activity of test compounds was compared to the reference compound. Activity of most interesting compound was confirmed in a second cell invasion assay. Data were expressed as the percent invasion with respect to cell migration through uncoated insert membrane.
# (§5) Table 3. […] In Invasion assay, data were expressed as the percent invasion (range) with respect to cell migration through uncoated insert membrane. In Adhesion assay, data were expressed as the percent of adhesion with respect to the control (100%).
# [5] = system: U2OS (human osteosarcoma); assay: Matrigel cell invasion assay; assay type: cell-based; details: for inhibition at 2.5 µM: Homo sapiens, read-out: Invasion Assay Inhibition U2OS
# Description: as §2, §3, §4, §5
# [6] = system: U87MG (human glioblastoma astrocytoma); assay: Matrigel cell invasion assay; assay type: cell-based; details: for inhibition at 2.5 µM: Homo sapiens, U-87 MG, read-out: Invasion Assay Inhibition U87MG
# Description: as §2, §3, §4, §5
# [7] = system: HT1080 (human fibrosarcoma); assay: Cell adhesion assay on matrigel coated wells; assay type: cell-based; details: percent of adhesion with respect to the control (100%)
# Description: (§6) Cell surface, non-integrin molecules such as heparan sulfate proteoglycans (HSPGs) may be involved in the regulation of early adhesive stages of cell-ECM interactions. A cell adhesion assay has been employed to determine if the newly designed heparanase inhibitors were able to interfere with adhesion properties of cancer cells.
# (§7) HT1080 (human fibrosarcoma) and U87MG (human glioblastoma astrocytoma) cells were treated for 18-20 h with test compounds in complete medium supplemented with 10% FCS. Then cells were collected, washed in complete medium, and added to matrigel coated wells in triplicate, at previously identified optimal seeding density, and incubated at 37 °C in complete medium for times ranging from 15 minutes to 4h, according to the cell line. After incubation, the wells were washed three times with serum-free medium and the remaining firmly attached cells were stained with crystal-violet 0.1%. Optical density was measured at 560 nm by Victor 3 (Perkin-Elmer) plate analyzer. Each experiment was repeated three times.
# as §5
# [8] = system: U87MG (human glioblastoma astrocytoma); assay: Cell adhesion assay on matrigel coated wells; assay type: cell-based; details: percent of adhesion with respect to the control (100%)
# Description: as §6, §7, §5
# [9] = AGA*IA screening, read-out: anti-heparanase activity
# [10] = Table 1, range activity classes, AGA*IA test on Fondaparinux, read-out: AGAIA assay IC50
# [11] = Table 2, classes as in Table 1, read-out: AGA*IA assay
SMILES,IC50 (heparanase; [9]),IC50 (heparanase; [10]),IC50 (heparanase; [11]),"EC50 ([1]; HT-1080, 72 h)",EC50 ([2]; 72 h),EC50 ([3]; 72 h),inhibition at 2.5 µM [4],Invasion Assay Inhibition U2OS ([5]; 2.5 µM),inhibition at 2.5 µM [6],Adhesion Assay (%) HT1080 ([7]; 2.5 µM),Adhesion Assay (%) U87MG ([8]; 2.5 µM),inhibition at 2.5 µM [5],"EC50 ([1]; HT-1080, HT1080, 72h, SRB)","EC50 ([2]; 72h, SRB)","EC50 ([3]; U87MG, 72h, SRB)","inhibition at 10 µM ([4]; HT-1080, HT1080, 10 µM (reference))",Invasion Assay Inhibition U2OS ([5]; 10 µM (reference)),"Invasion Assay Inhibition U87MG ([6]; U87MG, 10 µM (reference))",Adhesion Assay (%) HT1080 ([7]; 10 µM (reference)),Adhesion Assay (%) U87MG ([8]; 10 µM (reference))
"Cn1cc(NC(=O)c2cccc(NC(=O)Nc3cccc(C(=O)Nc4cc(C(=O)Nc5cccc(CC(=O)NCC(=O)O)c5)n(C)c4)c3)c2)cc1C(=O)Nc1cccc(CC(=O)NCC(=O)O)c1 [Compound 12b, 2,2'-((2,2'-(((4,4'-((3,3'-(Carbonylbis(azanediyl))bis(benzoyl))bis(azanediyl))bis(1-methyl-1H-pyrrole-4,2-diyl-2-carbonyl))bis(azanediyl))bis(3,1-phenylene))bis(acetyl))bis(azanediyl))diacetic acid]",< 500 nM,50 to 490 nM,50 to 490 nM,> 2.5 µM,> 2.5 µM,> 2.5 µM,< 50%,-,< 50%,97.1%,16.7%,,,,,,,,,
"Cn1cc(NC(=O)c2cc(NC(=O)Nc3cc(C(=O)Nc4cc(C(=O)Nc5cccc(CC(=O)NCC(=O)O)c5)n(C)c4)cc(C(F)(F)F)c3)cc(C(F)(F)F)c2)cc1C(=O)Nc1cccc(CC(=O)NCC(=O)O)c1 [Compound 13c, Disodium 2,2'-{carbonylbis[imino[5-(trifluoromethyl)-3,1-phenylene]carbonylimino(1-methyl-1H-pyrrole-4,2-diyl)carbonylimino-3,1-phenylene(1-oxoethane-2,1-diyl)imino]}diethanoate salt]",< 500 nM,50 to 490 nM,50 to 490 nM,> 2.5 µM,> 2.5 µM,> 2.5 µM,< 50%,,< 50%,88.2%,22.0%,50 to 90%,,,,,,,,
"Cc1ccc(C(=O)Nc2ccc(S(=O)(=O)O)c3cc(S(=O)(=O)O)cc(S(=O)(=O)O)c23)cc1NC(=O)c1cccc(NC(=O)Nc2cccc(C(=O)Nc3cc(C(=O)Nc4ccc(S(=O)(=O)O)c5cc(S(=O)(=O)O)cc(S(=O)(=O)O)c45)ccc3C)c2)c1 [Suramin, reference compound]",,,,,,,,,,,,,> 10 µM,> 10 µM,> 10 µM,< 50%,-,-,100%,72.98%
"Cn1cc(NC(=O)Nc2cc(C(=O)Nc3cc(C(=O)Nc4cccc(CC(=O)NCC(=O)O)c4)n(C)c3)n(C)c2)cc1C(=O)Nc1cc(C(=O)Nc2cccc(CC(=O)NCC(=O)O)c2)n(C)c1 [Compound 18, Disodium 2,2'-{carbonylbis[imino(1-methyl-1H-pyrrole-4,2-diyl)carbonylimino(1-methyl-1H-pyrrole-4,2-diyl)carbonylimino-3,1-phenylene(1-oxoethane-2,1-diyl)imino]}diethanoate salt]",,500 to 990 nM,500 to 990 nM,> 2.5 µM,> 2.5 µM,> 2.5 µM,50 to 90%,,< 50%,86.4%,62.9%,< 50%,,,,,,,,
"Cn1cc(NC(=O)Nc2cc(C(=O)Nc3cc(C(=O)Nc4cccc(CC(=O)N[C@@H](Cc5ccccc5)C(=O)O)c4)n(C)c3)n(C)c2)cc1C(=O)Nc1cc(C(=O)Nc2cccc(CC(=O)N[C@@H](Cc3ccccc3)C(=O)O)c2)n(C)c1 [Compound 17e, 2,2'-{carbonylbis[imino(1-methyl-1H-pyrrole-4,2-diyl)carbonylimino(1-methyl-1H-pyrrole-4,2-diyl)carbonylimino-3,1-phenylene(1-oxoethane-2,1-diyl)imino]}bis(3-phenylpropanoic acid)]",,500 to 990 nM,500 to 990 nM,> 2.5 µM,> 2.5 µM,> 2.5 µM,< 50%,-,< 50%,93.2%,51.6%,,,,,,,,,
